Laboratory results reported in BindingDB's records for PubMed 33316752 (University of Sharjah, 2021).

Molecular target: RAF proto-oncogene serine/threonine-protein kinase (Homo sapiens, UniProt P04049)
Assay: Inhibition of RAF1 (unknown origin) incubated for 40 mins by scintillation counting analysis

Chain of RAF proto-oncogene serine/threonine-protein kinase (P04049 whole entry): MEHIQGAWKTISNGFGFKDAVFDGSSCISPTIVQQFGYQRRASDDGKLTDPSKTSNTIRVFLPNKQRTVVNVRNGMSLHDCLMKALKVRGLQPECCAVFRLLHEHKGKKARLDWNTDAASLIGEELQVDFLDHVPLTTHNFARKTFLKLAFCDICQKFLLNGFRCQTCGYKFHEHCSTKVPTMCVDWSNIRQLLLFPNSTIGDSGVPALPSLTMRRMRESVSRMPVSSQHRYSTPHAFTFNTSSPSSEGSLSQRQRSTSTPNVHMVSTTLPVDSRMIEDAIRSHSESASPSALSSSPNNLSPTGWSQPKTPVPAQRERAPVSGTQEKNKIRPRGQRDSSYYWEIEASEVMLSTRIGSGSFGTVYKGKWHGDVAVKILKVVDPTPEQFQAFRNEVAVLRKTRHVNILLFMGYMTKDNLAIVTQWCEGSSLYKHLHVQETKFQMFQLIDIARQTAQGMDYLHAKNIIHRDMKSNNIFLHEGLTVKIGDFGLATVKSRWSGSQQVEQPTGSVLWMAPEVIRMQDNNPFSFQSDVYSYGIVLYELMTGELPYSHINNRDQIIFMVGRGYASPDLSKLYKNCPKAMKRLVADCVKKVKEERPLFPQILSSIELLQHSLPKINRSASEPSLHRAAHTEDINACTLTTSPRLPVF

`O=C(NCCNc1nccc(-c2c(-c3cccc(O)c3)nc3sccn23)n1)c1ccccc1` gave an IC50 of 8.2 nM.
